Experimental data: patent US20250066371A1, “FLUOROALKOXYALKYLENE-DIHYDROIMIDAZO[5,1-D]TETRAZINONE COMPOUNDS AND RELATED COMPOUNDS AND THEIR USE IN TREATING MEDICAL CONDITIONS” (priority 2023, published 2025)

Legend:
Assay in all cases: Cell panel nuclear dye assay
Assay type in all cases: cell-based
NCI-H441 = details: Homo sapiens, 120 h, Lung (NSCLC), 5-day incubation
Procedure: (§1) Cells were grown in RPMI1640, 10% FBS, 2 mM L-alanyl-L-glutamine, 1 mM Na pyruvate, or a special medium. Cells were seeded into 384-well plates and incubated in a humidified atmosphere of 5% CO2 at 37° C. Compound was added the day following cell seeding. At the same time, a time zero untreated cell plate was generated. After a 5-day incubation period, cells were fixed and stained to allow fluorescence imaging of nuclei.
(§2) Compounds were serially diluted in 2-fold steps from the highest test concentration specified, and assayed over 10 concentrations with a maximum assay concentration of 0.1% DMSO. Automated fluorescence microscopy was carried out using a Molecular Devices ImageXpress Micro XL high-content imager, and images were collected with a 4× objective. 16-bit TIFF images were acquired and analyzed with MetaXpress 5.1.0.41 software.
(§3) Cell proliferation was measured by the fluorescence intensity of an incorporated nuclear dye. The output is referred to as the relative cell count, where the measured nuclear intensity is transformed to percent of control (POC) using the following formula: […]
(§4) Cell count IC50 is the test compound concentration at 50% of maximal possible response. EC50 is the test compound concentration at the curve inflection point or half the effective response (parameter C of the fitted curve solution). GI50 is the concentration needed to reduce the observed growth by half (midway between the curve maximum and the time zero value). Activity area is an estimate of the integrated area above the curve. Activity area values range from 0-10, where a value of zero indicates no inhibition of proliferation at all concentrations, and a value of 10 indicates complete inhibition of proliferation at all concentrations. In rare instances, values <0 or >10 may be observed. In these instances, values <0 should be considered as equivalent to 0, whereas values >10 should be considered equivalent to 10.

SH-4 = details: Homo sapiens, 120 h, Melanoma, 5-day incubation
Procedure: as §1, §2, §3, §4

SK-LMS-1 = details: Homo sapiens, 120 h, Sarcoma (leiomyosarcoma), 5-day incubation
Procedure: as §1, §2, §3, §4

SR = details: Homo sapiens, 120 h, Lymphoma (large cell immunoblastic), 5-day incubation
Procedure: as §1, §2, §3, §4

WM-266-4 = details: Homo sapiens, 120 h, Melanoma, 5-day incubation
Procedure: as §1, §2, §3, §4

U-87 MG = details: Homo sapiens, 120 h, Glioma (glioblastoma), 5-day incubation
Procedure: as §1, §2, §3, §4

CCF-STTG1 = details: Homo sapiens, 120 h, Glioma (astrocytoma), 5-day incubation
Procedure: as §1, §2, §3, §4

T24 = details: Homo sapiens, T-24, 120 h, Bladder, 5-day incubation
Procedure: as §1, §2, §3, §4

639-V = details: Homo sapiens, 120 h, Bladder (ureter), 5-day incubation
Procedure: as §1, §2, §3, §4

NCI-H446 = details: Homo sapiens, 120 h, Lung (SCLC), 5-day incubation
Procedure: as §1, §2, §3, §4

CRO-AP2 = details: Homo sapiens, 120 h, Lymphoma, 5-day incubation
Procedure: as §1, §2, §3, §4

647-V = details: Homo sapiens, 120 h, Bladder, 5-day incubation
Procedure: as §1, §2, §3, §4

TUR = details: 120 h, Lymphoma (histiocytic), 5-day incubation
Procedure: as §1, §2, §3, §4

DBTRG-05MG = details: Homo sapiens, 120 h, Glioma (glioblastoma multiforme), 5-day incubation
Procedure: as §1, §2, §3, §4

SHP-77 = details: Homo sapiens, SHP77, 120 h, Lung (SCLC), 5-day incubation
Procedure: as §1, §2, §3, §4

SW1783 = details: Homo sapiens, 120 h, Glioma (astrocytoma), 5-day incubation
Procedure: as §1, §2, §3, §4

SU-DHL-10 = details: Homo sapiens, SU-DHL10, 120 h, Lymphoma (large cell), 5-day incubation
Procedure: as §1, §2, §3, §4

OE33 = details: Homo sapiens, 120 h, Head & neck (esophageal carcinoma), 5-day incubation
Procedure: as §1, §2, §3, §4

NCI-H661 = details: Homo sapiens, 120 h, Lung (NSCLC), 5-day incubation
Procedure: as §1, §2, §3, §4

C32TG = details: 120 h, Melanoma, 5-day incubation
Procedure: as §1, §2, §3, §4

A-253 = details: Homo sapiens, A253, 120 h, Head & neck (epidermoid carcinoma, salivary gland), 5-day incubation
Procedure: as §1, §2, §3, §4

SNB-19 = details: Homo sapiens, 120 h, Glioma (astrocytoma), 5-day incubation
Procedure: as §1, §2, §3, §4

A101D = details: Homo sapiens, 120 h, Melanoma, 5-day incubation
Procedure: as §1, §2, §3, §4

SCC-9 = details: Homo sapiens, 120 h, Head & neck (squamous cell carcinoma, tongue), 5-day incubation
Procedure: as §1, §2, §3, §4

BCP-1 = details: 120 h, Lymphoma (B-cell), 5-day incubation
Procedure: as §1, §2, §3, §4

**Q.** `NC(=O)c1ncn2c(=O)n(CCOC(F)(F)F)nnc12` [Compound I-1, 4-Oxo-3-(2-(trifluoromethoxy)ethyl)-3,4-dihydroimidazo[5,1-d][1,2,3,5]tetrazine-8-carboxamide] was tested. Which EC50 (NCI-H441) did it give?
**A.** The EC50 was greater than 150 µM.

**Q.** And the IC50 (NCI-H441)?
**A.** The IC50 was greater than 150 µM.

**Q.** And the EC50 (SH-4)?
**A.** Its EC50 is 30 to 70 µM.

**Q.** What about the IC50 (SH-4) of the same compound?
**A.** The IC50 was 30 to 70 µM.

**Q.** And the EC50 (SK-LMS-1)?
**A.** Its EC50 is 30 to 70 µM.

**Q.** What about the IC50 (SK-LMS-1) of the same compound?
**A.** The IC50 was 30 to 70 µM.

**Q.** And the EC50 (SR)?
**A.** Its EC50 is no more than 30 µM.

**Q.** What about the IC50 (SR) of the same compound?
**A.** The IC50 was no more than 30 µM.

**Q.** What about the EC50 (WM-266-4) of the same compound?
**A.** The EC50 was 30 to 70 µM.

**Q.** What about the IC50 (WM-266-4) of the same compound?
**A.** Its IC50 is 30 to 70 µM.

**Q.** And the EC50 (U-87 MG)?
**A.** The EC50 was 30 to 70 µM.

**Q.** What about the IC50 (U-87 MG) of the same compound?
**A.** Its IC50 is 70 to 150 µM.

**Q.** And the EC50 (CCF-STTG1)?
**A.** Its EC50 is no more than 30 µM.

**Q.** What about the IC50 (CCF-STTG1) of the same compound?
**A.** Its IC50 is 30 to 70 µM.

**Q.** What about the EC50 (T24) of the same compound?
**A.** The EC50 was 30 to 70 µM.

**Q.** And the IC50 (T24)?
**A.** The IC50 was greater than 150 µM.

**Q.** What about the EC50 (639-V) of the same compound?
**A.** The EC50 was no more than 30 µM.

**Q.** What about the IC50 (639-V) of the same compound?
**A.** Its IC50 is no more than 30 µM.

**Q.** What about the EC50 (NCI-H446) of the same compound?
**A.** Its EC50 is 30 to 70 µM.

**Q.** And the IC50 (NCI-H446)?
**A.** The IC50 was 30 to 70 µM.

**Q.** And the EC50 (CRO-AP2)?
**A.** Its EC50 is no more than 30 µM.

**Q.** And the IC50 (CRO-AP2)?
**A.** Its IC50 is no more than 30 µM.

**Q.** And the EC50 (647-V)?
**A.** Its EC50 is 30 to 70 µM.

**Q.** What about the IC50 (647-V) of the same compound?
**A.** Its IC50 is 30 to 70 µM.

**Q.** And the EC50 (TUR)?
**A.** The EC50 was no more than 30 µM.

**Q.** And the IC50 (TUR)?
**A.** The IC50 was no more than 30 µM.

**Q.** And the EC50 (DBTRG-05MG)?
**A.** Its EC50 is no more than 30 µM.

**Q.** And the IC50 (DBTRG-05MG)?
**A.** The IC50 was no more than 30 µM.

**Q.** And the EC50 (SHP-77)?
**A.** The EC50 was 30 to 70 µM.

**Q.** And the IC50 (SHP-77)?
**A.** Its IC50 is 70 to 150 µM.

**Q.** What about the EC50 (SW1783) of the same compound?
**A.** Its EC50 is 70 to 150 µM.

**Q.** And the IC50 (SW1783)?
**A.** The IC50 was 70 to 150 µM.

**Q.** What about the EC50 (SU-DHL-10) of the same compound?
**A.** Its EC50 is no more than 30 µM.

**Q.** And the IC50 (SU-DHL-10)?
**A.** Its IC50 is 30 to 70 µM.

**Q.** What about the EC50 (OE33) of the same compound?
**A.** Its EC50 is 30 to 70 µM.

**Q.** And the IC50 (OE33)?
**A.** The IC50 was 30 to 70 µM.

**Q.** And the EC50 (NCI-H661)?
**A.** The EC50 was no more than 30 µM.

**Q.** What about the IC50 (NCI-H661) of the same compound?
**A.** Its IC50 is greater than 150 µM.

**Q.** What about the EC50 (C32TG) of the same compound?
**A.** The EC50 was no more than 30 µM.

**Q.** And the IC50 (C32TG)?
**A.** The IC50 was no more than 30 µM.

**Q.** And the EC50 (A-253)?
**A.** Its EC50 is 70 to 150 µM.

**Q.** And the IC50 (A-253)?
**A.** The IC50 was 70 to 150 µM.

**Q.** And the EC50 (SNB-19)?
**A.** Its EC50 is 30 to 70 µM.

**Q.** And the IC50 (SNB-19)?
**A.** Its IC50 is 30 to 70 µM.

**Q.** And the EC50 (A101D)?
**A.** Its EC50 is no more than 30 µM.

**Q.** And the IC50 (A101D)?
**A.** The IC50 was no more than 30 µM.

**Q.** And the EC50 (SCC-9)?
**A.** The EC50 was 70 to 150 µM.

**Q.** And the IC50 (SCC-9)?
**A.** Its IC50 is 70 to 150 µM.

**Q.** What about the EC50 (BCP-1) of the same compound?
**A.** Its EC50 is no more than 30 µM.

**Q.** What about the IC50 (BCP-1) of the same compound?
**A.** Its IC50 is no more than 30 µM.
